Several values for one entry are separate records, joined by “and”; a condition that tells them apart may be missing. Equal entries are not always repeated. Where two headings read alike, the source gives them in different places.
Key:
[1] = Highest non toxic dose in the mouse; conditions: in vivo, iv, read-out: highest non toxic dose (HNTD)
[2] = Plasma kinetics of Compound A after i.v. injection in mice (HPLC); type: in vivo, C3H/HeN female mice; conditions: for Cmax at 2 min: read-out: observed maximum plasma concentration
Procedure: (§1) Mammary C/16 adenocarcinomas were implanted in C3H/HeN female mice. At least 7 days later, 4α,10β-diacetoxy-2α-benzoyloxy-5β,20-epoxy-1β-hydroxy-7β,8β-methylene-9-oxo-19-nor-11-taxen-13α-yl (2R,3S)-3-tert-butoxycarbonylamino-2-hydroxy-3-phenylpropionate ("Compound A") was administered to groups of female mice at doses of 9.5, 15.4, 24.8, 40 or 60.5 mg/kg by intravenous injection under 0.4 or 0.5 ml/injection over 15 seconds. The body weight and date of implantation were recorded for each mouse. Blood and tissue samples were taken 2, 5, 15, 30 and 45 minutes and 1, 4, 14, 24 and 48 hours, after administration. The plasma was separated from the blood samples at 4° C. and frozen immediately. The tissue and tumors were weighed and frozen immediately (-20° C.).
(§2) The plasma and tissue samples were then analyzed for the concentration of Compound A. The plasma was assayed by high pressure liquid chromatography with spectrophotometric detection. For the tissue, liver, heart, kidney, lung, spleen and tumor tissue, samples were assayed by a first method, while a second method was used for the brain tissue analyzed. In the first method, 0.2 g of tissue was combined with 2 ml of sodium phosphate buffer 0.1 M (pH:7) and homogenized. The homogenate was centrifuged and 0.5 ml of supernatant was injected into the chromatographic column. In the second method, 10 μl of standard solution was combined with 0.2 g of brain tissue. 2 ml of methanol/5% perchloric acid (50/50) were added and the mixture was homogenized. The homogenate was centrifuged and 100 μl of supernatant was injected into the chromatographic column.

[3] = Brain distribution of Compound A in mice with mammary C/16 adenocarcinomas (second method, brain tissue); type: in vivo, C3H/HeN female mice
Procedure: as §1, §2

[4] = 0.03 h, 40 μg/kg [sic], single mice
[5] = 0.03 h, 40 μg/kg [sic], single mice, 40 mg/kg, 1.8 min
[6] = 0.08 h, 40 μg/kg [sic], single mice, MEAN=b257
[7] = 0.08 h, 40 μg/kg [sic], single mice, MEAN=b257, 40 mg/kg, 4.8 min
[8] = 0.25 h, 40 μg/kg [sic], single mice
[9] = 0.25 h, 40 μg/kg [sic], single mice, 40 mg/kg, 15 min
[10] = 0.50 h, 40 μg/kg [sic], single mice
[11] = 0.75 h, 40 μg/kg [sic], single mice, MEAN=b278
[12] = 1 h, 40 μg/kg [sic], single mice
[13] = 1 h, 40 μg/kg [sic], single mice, 40 mg/kg, 60 min
[14] = 4 h, 40 μg/kg [sic], single mice
[15] = 4 h, 40 μg/kg [sic], single mice, 40 mg/kg, 240 min
[16] = 14 h, 40 μg/kg [sic], single mice
[17] = 24 h, 40 μg/kg [sic], single mice
[18] = 24 h, 40 μg/kg [sic], single mice, 40 mg/kg, 1440 min
[19] = 48 h, 40 μg/kg [sic], single mice

With `CC(=O)O[C@H]1C(=O)[C@]23C[C@H]2C[C@H]2OC[C@@]2(OC(C)=O)[C@H]3[C@H](OC(=O)c2ccccc2)[C@]2(O)C[C@H](OC(=O)[C@H](O)[C@@H](NC(=O)OC(C)(C)C)c3ccccc3)C(C)=C1C2(C)C` [Compound A, 4α,10β-diacetoxy-2α-benzoyloxy-5β,20-epoxy-1β-hydroxy-7β,8β-methylene-9-oxo-19-nor-11-taxen-13α-yl (2R,3S)-3-tert-butoxycarbonylamino-2-hydroxy-3-phenylpropionate] the MTD [1] was 40 mg/kg, the “kinetics in plasma and tumor tissue, linearity” value ([2]; 9.5 to 60.5 mg/kg i.v.) was “linear over the range studied” and the “maximum plasma concentrations, dose linearity” value ([2]; 9.5 to 60.5 mg/kg i.v., 2 minutes) was “linear with respect to dose”. It also gave a Cmax at 2 min ([2]; mouse, plasma, iv, 9.5 mg/kg i.v., 2 minutes) of 14 ± 1 µg/mL, a Cmax at 2 min ([2]; mouse, plasma, iv, 15.4 mg/kg i.v., 2 minutes) of 21 ± 2 µg/mL and a Cmax at 2 min ([2]; mouse, plasma, iv, 24.8 mg/kg i.v., 2 minutes) of 35 ± 2 µg/mL. For the same compound, the Cmax at 2 min ([2]; mouse, plasma, iv, 40 mg/kg i.v., 2 minutes) was 51 ± 1 µg/mL, the Cmax at 2 min ([2]; mouse, plasma, iv, 60.5 mg/kg i.v., 2 minutes) was 133 ± 30 µg/mL and the AUC(0-t) at 4 h ([2]; mouse, plasma, iv, dose = 40 mg/kg) was 35 µg·h/mL. For the same compound, the AUC(0-inf) ([2]; mouse, plasma, iv, dose = 40 mg/kg, read-out: AUC 0 to Infinity, Plasma) was 58.6 µg·h/mL, the half-life ([2]; mouse, plasma, iv, dose = 40 mg/kg, read-out: t 1/2, Plasma (converted)) was 4.4 h and the “brain and plasma AUCs at 4 hours compared” value ([3]; 40 mg/kg i.v.) was “similar”. For the same compound, the “0 to infinity AUC in brain tissue compared with plasma” value ([3]; 40 mg/kg i.v., mouse) was “ten times that observed for plasma”, the “% of DOSE (brain)” value [3, 4] was 0.42% and 0.53% and 0.47% and 0.36% and 0.45% and the “AMOUNT In TISSUE (brain)” value [3, 4] was 4.21 µg and 5.17 µg and 4.34 µg and 3.55 µg and 4.32 µg. The “Brain CONC.” value [3, 5] was 11.32 µg/g and 9.51 µg/g and 7.64 µg/g and 9.57 µg/g, the “RATIO BRAIN/PLASMA” value [3, 5] was 0.22 and 0.15 and the “Percentage of Compound A (of dose) in Brain” value (from here on “Percentage”) ([3]; 0.033 h, 40 mg/kg) was 0.19%. For the same compound, the “% of DOSE (brain)” value [3, 6] was 0.60% and 0.49% and 0.58% and 0.56%, the “AMOUNT In TISSUE (brain)” value [3, 6] was 6.14 µg and 4.62 µg and 5.62 µg and 5.46 µg and the “Brain CONC.” value [3, 7] was 10.69 µg/g and 13.46 µg/g and 12.56 µg/g. The “RATIO BRAIN/PLASMA” value [3, 7] was 0.27 and 0.29 and 0.34, the “% of DOSE (brain)” value [3, 8] was 0.58% and 0.52% and 0.67% and 0.66% and 0.61% and the “AMOUNT In TISSUE (brain)” value [3, 8] was 5.38 µg and 4.88 µg and 6.68 µg and 6.07 µg and 5.75 µg. The “Brain CONC.” value [3, 9] was 11.16 µg/g and 15.37 µg/g and 13.12 µg/g and 13.21 µg/g, the “RATIO BRAIN/PLASMA” value [3, 9] was 0.53 and 0.50 and 0.66 and 0.57 and the “% of DOSE (brain)” value [3, 10] was 0.53% and 0.45% and 0.42% and 0.39%. For the same compound, the “AMOUNT In TISSUE (brain)” value [3, 10] was 4.78 µg and 4.56 µg and 3.87 µg and 3.53 µg and 4.19 µg, the “RATIO BRAIN/PLASMA” value ([3]; 0.50 h, 40 μg/kg [sic], single mice, 40 mg/kg, 30 min) was 0.69 and 0.75 and the “% of DOSE (brain)” value [3, 11] was 0.38% and 0.53% and 0.50% and 0.45%. For the same compound, the “AMOUNT In TISSUE (brain)” value [3, 11] was 3.32 µg and 4.99 µg and 4.49 µg and 3.92 µg and 4.18 µg, the “Brain CONC.” value ([3]; 0.75 h, 40 μg/kg [sic], single mice, MEAN=b278, 40 mg/kg, 45 min) was 11.46 µg/g and 9.98 µg/g and 9.00 µg/g and 9.5 µg/g and the “% of DOSE (brain)” value [3, 12] was 0.54% and 0.34% and 0.33% and 0.43% and 0.41%. The “AMOUNT In TISSUE (brain)” value [3, 12] was 5.14 µg and 3.35 µg and 3.14 µg and 4.22 µg and 3.96 µg, the “Brain CONC.” value [3, 13] was 7.23 µg/g and 7.33 µg/g and 9.05 µg/g and 8.77 µg/g and the “RATIO BRAIN/PLASMA” value [3, 13] was 1.18 and 1.12. For the same compound, the “Percentage” value ([3]; 1 h, 40 mg/kg) was 0.41%, the “% of DOSE (brain)” value [3, 14] was 0.34% and 0.45% and 0.36% and 0.40% and 0.39% and the “AMOUNT In TISSUE (brain)” value [3, 14] was 3.27 µg and 4.27 µg and 3.40 µg and 3.67 µg and 3.65 µg. The “Brain CONC.” value [3, 15] was 10.24 µg/g and 7.88 µg/g and 8.38 µg/g and 8.47 µg/g, the “RATIO BRAIN/PLASMA” value [3, 15] was 2.46 and 2.7 and 2.71 and the “Percentage” value ([3]; 4 h, 40 mg/kg) was 0.39%. For the same compound, the “% of DOSE (brain)” value [3, 16] was 0.40% and 0.44% and 0.28% and 0.38%, the “AMOUNT In TISSUE (brain)” value [3, 16] was 3.73 µg and 4.06 µg and 2.46 µg and 3.65 µg and 3.48 µg and the “Brain CONC.” value ([3]; 14 h, 40 μg/kg [sic], single mice, 40 mg/kg, 840 min) was 8.77 µg/g and 5.77 µg/g and 8.23 µg/g and 7.84 µg/g. The “% of DOSE (brain)” value [3, 17] was 0.39% and 0.29% and 0.33%, the “AMOUNT In TISSUE (brain)” value [3, 17] was 3.78 µg and 2.58 µg and 2.79 µg and 3.08 µg and 3.06 µg and the “Brain CONC.” value [3, 18] was 6.00 µg/g and 6.20 µg/g and 7.03 µg/g and 6.95 µg/g. For the same compound, the “RATIO BRAIN/PLASMA” value [3, 18] was 20.67 and 20.68, the “Percentage” value ([3]; 24 h, 40 mg/kg) was 0.33% and the “% of DOSE (brain)” value [3, 19] was 0.15% and 0.21% and 0.20% and 0.19%. For the same compound, the “AMOUNT In TISSUE (brain)” value [3, 19] was 1.55 µg and 2.02 µg and 2.13 µg and 1.97 µg and 1.92 µg, the “Brain CONC.” value ([3]; 48 h, 40 μg/kg [sic], single mice, 40 mg/kg, 2880 min) was 4.54 µg/g and 4.77 µg/g and 4.48 µg/g and 4.37 µg/g and the “Percentage” value ([3]; 48 h, 40 mg/kg) was 0.19%. For the same compound, the “AUC 0-4 Hours, Brain” value ([3]; dose = 40 mg/kg) was 36.3 µg·h/g, the “AUC 0 to Infinity, Brain” value ([3]; dose = 40 mg/kg) was 627 µg·h/g and the “t 1/2, Brain” value ([3]; dose = 40 mg/kg) was 47.6 h. It also gave a half-life ([3]; mouse, brain, iv, 40 mg/kg, 40 mg/kg i.v., read-out: half-life of the distribution phase, brain (converted)) of 0.07 h, a concentration at 0.03 h ([3]; mouse, brain, iv, 40 mg/kg, 0.03 h, 40 μg/kg [sic], single mice, read-out: Brain CONC.) of 9800 ng/g and a concentration at 0.08 h ([3]; mouse, brain, iv, 40 mg/kg, 0.08 h, 40 μg/kg [sic], single mice, MEAN=b257, read-out: Brain CONC.) of 13500 ng/g. The concentration at 0.25 h ([3]; mouse, brain, iv, 40 mg/kg, 0.25 h, 40 μg/kg [sic], single mice, read-out: Brain CONC.) was 13200 ng/g, the concentration at 0.5 h ([3]; mouse, brain, iv, 40 mg/kg, 0.50 h, 40 μg/kg [sic], single mice, read-out: Brain CONC.) was 11200 ng/g and the concentration at 0.75 h ([3]; mouse, brain, iv, 40 mg/kg, 0.75 h, 40 μg/kg [sic], single mice, MEAN=b278, read-out: Brain CONC.) was 7540 ng/g. It also gave a concentration at 1 h ([3]; mouse, brain, iv, 40 mg/kg, 1 h, 40 μg/kg [sic], single mice, read-out: Brain CONC.) of 11500 ng/g, a concentration at 4 h ([3]; mouse, brain, iv, 40 mg/kg, 4 h, 40 μg/kg [sic], single mice, read-out: Brain CONC.) of 7390 ng/g and a concentration at 14 h ([3]; mouse, brain, iv, 40 mg/kg, 14 h, 40 μg/kg [sic], single mice, read-out: Brain CONC.) of 8570 ng/g. The concentration at 24 h ([3]; mouse, brain, iv, 40 mg/kg, 24 h, 40 μg/kg [sic], single mice, read-out: Brain CONC.) was 8580 ng/g, the concentration at 48 h ([3]; mouse, brain, iv, 40 mg/kg, 48 h, 40 μg/kg [sic], single mice, read-out: Brain CONC.) was 3670 ng/g and the half-life ([3]; mouse, brain, iv, 40 mg/kg, read-out: t 1/2, Brain (converted)) was 47.6 h. The Tmax ([3]; mouse, brain, iv, 40 mg/kg i.v., read-out: time of maximum concentration, brain) was 0.25 h, the Kp at 0.03 h ([3]; mouse, brain/plasma, iv, 40 mg/kg, 0.03 h, 40 μg/kg [sic], single mice, read-out: RATIO BRAIN/PLASMA) was 0.2 and the Kp at 0.08 h ([3]; mouse, brain/plasma, iv, 40 mg/kg, 0.08 h, 40 μg/kg [sic], single mice, MEAN=b257, read-out: RATIO BRAIN/PLASMA) was 0.47. The Kp at 0.25 h ([3]; mouse, brain/plasma, iv, 40 mg/kg, 0.25 h, 40 μg/kg [sic], single mice, read-out: RATIO BRAIN/PLASMA) was 0.6, the Kp at 0.5 h ([3]; mouse, brain/plasma, iv, 40 mg/kg, 0.50 h, 40 μg/kg [sic], single mice, read-out: RATIO BRAIN/PLASMA) was 0.93 and the Kp at 1 h ([3]; mouse, brain/plasma, iv, 40 mg/kg, 1 h, 40 μg/kg [sic], single mice, read-out: RATIO BRAIN/PLASMA) was 1.42. For the same compound, the Kp at 4 h ([3]; mouse, brain/plasma, iv, 40 mg/kg, 4 h, 40 μg/kg [sic], single mice, read-out: RATIO BRAIN/PLASMA) was 2.84 and the Kp at 24 h ([3]; mouse, brain/plasma, iv, 40 mg/kg, 24 h, 40 μg/kg [sic], single mice, read-out: RATIO BRAIN/PLASMA) was 20.7.
